US7592360B2, “3-fluoro-piperidines as NMDA/NR2B antagonists” (Merck & Co., Inc., priority 2003, dated 2009)
Counter-ions that a name gives are not always drawn.

O=C([C@@H]1C[C@H]1c1ccccc1)N1CC[C@H](CNc2ncccn2)[C@H](F)C1 (as salt: hydrochloride) [Example 5, (3S,4R)-N-[(3-cis-fluoro-1-{[(1R,2R)-2-phenylcyclopropyl]carbonyl}piperidin-4-yl)methyl]pyrimidin-2-amine]
melting point: 127 to 128 °C

Cc1ccc(COC(=O)N2CC[C@@H](CNc3nncs3)[C@@H](F)C2)cc1 (stereo in doubt) (as salt: hydrochloride) [Example 6, (−)-cis-4-methylbenzyl 3-fluoro-4-[(1,3,4-thiadiazol-2-ylamino)methyl]piperidine-1-carboxylate]
melting point: 115 to 117 °C

Cc1ccc(COC(=O)N2CC[C@@H](CNc3nncs3)[C@H](F)C2)cc1 [Example 7, (+)-trans-4-methylbenzyl 3-fluoro-4-[(1,3,4-thiadiazol-2-ylamino)methyl]piperidine-1-carboxylate]
melting point: 93 to 95 °C
